Patent US9113629B2, “4-amino-6-(4-substituted-phenyl)-picolinates and 6-amino-2-(4-substituted-phenyl)-pyrimidine-4-carboxylates and their use as herbicides” (DOW AGROSCIENCES LLC, priority 2013, dated 2015)
Where two headings read alike, the source gives them in different places.

Legend:
[1] = system: Key Broadleaf Weed and Crop Species; assay: Post-emergent Test II herbicidal activity (Table 5); format: in vivo; details: post-emergence, 336 h, 14 days after application; for pest or weed control at 70 g/ha: application rate 70 g ai/ha; for pest or weed control at 140 g/ha: application rate 140 g ai/ha
Summary of the method: (§1)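 Greenhouse post-emergent assay: seedlings (first/second true leaf) in Metro-Mix 360 were sprayed at 187 L/ha at a top rate plus twofold dilutions down to 1/16×; solvent-blank controls were included. Percent visual injury was read at 14 d.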

[2] = system: Key Grass and Sedge Weeds as well as Grass Crops; assay: Post-emergent Test II herbicidal activity (Table 6); format: in vivo; details: post-emergence, 336 h; for pest or weed control at 70 g/ha: 70 g ai/ha; for pest or weed control at 140 g/ha: 140 g ai/ha
Summary of the method: as §1

[3] = ABUTH: velvetleaf (Abutilon theophrasti), read-out: Visual Growth Reduction (%) 14 Days After Application, ABUTH
[4] = AMARE: redroot pigweed (Amaranthus retroflexus), read-out: Visual Growth Reduction (%) 14 Days After Application, AMARE
[5] = BRSNN: oilseed-rape, canola (Brassica napus), read-out: Visual Growth Reduction (%) 14 Days After Application, BRSNN
[6] = CHEAL: lambsquarters (Chenopodium album), read-out: Visual Growth Reduction (%) 14 Days After Application, CHEAL
[7] = EPHHL: wild poinsettia (Euphorbia heterophylla), read-out: Visual Growth Reduction (%) 14 Days After Application, EPHHL
[8] = HELAN: sunflower (Helianthus annuus), read-out: Visual Growth Reduction (%) 14 Days After Application, HELAN
[9] = VIOTR: wild pansy (Viola tricolor), read-out: Visual Growth Reduction (%) 14 Days After Application, VIOTR
[10] = CYPES: yellow nutsedge (Cyperus esculentus), read-out: Visual Growth Reduction (%) 14 Days After Application, CYPES
[11] = DIGSA: crabgrass (Digitaria sanguinalis), read-out: Visual Growth Reduction (%) 14 Days After Application, DIGSA
[12] = ECHCG: barnyardgrass (Echinochloa crus-galli), read-out: Visual Growth Reduction (%) 14 Days After Application, ECHCG
[13] = ORYSA: rice (Oryza sativa), crop, read-out: Visual Growth Reduction (%) 14 Days After Application, ORYSA
[14] = SETFA: giant foxtail (Setaria faberi), read-out: Visual Growth Reduction (%) 14 Days After Application, SETFA
[15] = SORVU: grain sorghum (Sorghum vulgare), read-out: Visual Growth Reduction (%) 14 Days After Application, SORVU
[16] = TRZSS (wheat, Triticum aestivum), crop, read-out: Visual Growth Reduction (%) 14 Days After Application, TRZSS
[17] = ZEAMX: maize, corn (Zea mays), crop, read-out: Visual Growth Reduction (%) 14 Days After Application, ZEAMX

Work on COC(=O)c1nc(-c2ccc(OC(F)F)cc2)nc(N)c1OC [Compound 106, methyl 6-amino-2-(4-(difluoromethoxy)phenyl)-5-methoxypyrimidine-4-carboxylate] yielded a pest or weed control at 70 g/ha [1, 3] of 0 to 29%, a pest or weed control at 140 g/ha [1, 3] of 0 to 29% and a pest or weed control at 70 g/ha [1, 4] of 0 to 29%. For the same molecule, the pest or weed control at 140 g/ha [1, 4] was 0 to 29%, the pest or weed control at 70 g/ha [1, 5] was 0 to 29% and the pest or weed control at 140 g/ha [1, 5] was 0 to 29%. For the same molecule, the pest or weed control at 70 g/ha [1, 6] was 0 to 29%, the pest or weed control at 140 g/ha [1, 6] was 0 to 29% and the pest or weed control at 70 g/ha [1, 7] was 0 to 29%. The pest or weed control at 140 g/ha [1, 7] was 0 to 29%, the pest or weed control at 70 g/ha [1, 8] was 0 to 29% and the pest or weed control at 140 g/ha [1, 8] was 0 to 29%. The pest or weed control at 70 g/ha [1, 9] was 0 to 29%, the pest or weed control at 140 g/ha [1, 9] was 0 to 29% and the pest or weed control at 70 g/ha [2, 10] was 0 to 29%. For the same molecule, the pest or weed control at 140 g/ha [2, 10] was 0 to 29%, the pest or weed control at 70 g/ha [2, 11] was 0 to 29% and the pest or weed control at 140 g/ha [2, 11] was 0 to 29%. It also gave a pest or weed control at 70 g/ha [2, 12] of 0 to 29%, a pest or weed control at 140 g/ha [2, 12] of 0 to 29% and a pest or weed control at 70 g/ha [2, 13] of 0 to 29%. It also gave a pest or weed control at 140 g/ha [2, 13] of 0 to 29%, a pest or weed control at 70 g/ha [2, 14] of 0 to 29% and a pest or weed control at 140 g/ha [2, 14] of 0 to 29%. It also gave a pest or weed control at 70 g/ha [2, 15] of 0 to 29%, a pest or weed control at 140 g/ha [2, 15] of 0 to 29% and a pest or weed control at 70 g/ha [2, 16] of 0 to 29%. For the same molecule, the pest or weed control at 140 g/ha [2, 16] was 0 to 29%, the pest or weed control at 70 g/ha [2, 17] was 0 to 29% and the pest or weed control at 140 g/ha [2, 17] was 0 to 29%. The melting point was 183 to 184 °C.
Nc1c(F)c(-c2ccc(C(F)(F)F)c(F)c2F)nc(C(=O)O)c1Cl [Compound 167] showed a pest or weed control at 70 g/ha [1, 3] of 85 to 94%, a pest or weed control at 140 g/ha [1, 3] of 95 to 100% and a pest or weed control at 70 g/ha [1, 4] of 95 to 100%. The pest or weed control at 140 g/ha [1, 4] was 95 to 100%, the pest or weed control at 70 g/ha [1, 5] was 95 to 100% and the pest or weed control at 140 g/ha [1, 5] was 95 to 100%. It also gave a pest or weed control at 70 g/ha [1, 6] of 95 to 100%, a pest or weed control at 140 g/ha [1, 6] of 95 to 100% and a pest or weed control at 70 g/ha [1, 7] of 95 to 100%. The pest or weed control at 140 g/ha [1, 7] was 95 to 100%, the pest or weed control at 70 g/ha [1, 8] was 95 to 100% and the pest or weed control at 140 g/ha [1, 8] was 95 to 100%. For the same molecule, the pest or weed control at 70 g/ha [1, 9] was 95 to 100%, the pest or weed control at 140 g/ha [1, 9] was 85 to 94% and the pest or weed control at 70 g/ha [2, 10] was 85 to 94%. It also gave a pest or weed control at 140 g/ha [2, 10] of 95 to 100%, a pest or weed control at 70 g/ha [2, 11] of 75 to 84% and a pest or weed control at 140 g/ha [2, 11] of 75 to 84%. For the same molecule, the pest or weed control at 70 g/ha [2, 12] was 95 to 100%, the pest or weed control at 140 g/ha [2, 12] was 95 to 100% and the pest or weed control at 70 g/ha [2, 13] was 0 to 29%. It also gave a pest or weed control at 140 g/ha [2, 13] of 0 to 29%, a pest or weed control at 70 g/ha [2, 14] of 85 to 94% and a pest or weed control at 140 g/ha [2, 14] of 95 to 100%. The pest or weed control at 70 g/ha [2, 15] was 85 to 94%, the pest or weed control at 140 g/ha [2, 15] was 85 to 94% and the pest or weed control at 70 g/ha [2, 16] was 60 to 74%. For the same molecule, the pest or weed control at 140 g/ha [2, 16] was 60 to 74%, the pest or weed control at 70 g/ha [2, 17] was 75 to 84% and the pest or weed control at 140 g/ha [2, 17] was 85 to 94%. For the same molecule, the melting point was 69 to 70 °C.
For Nc1cc(-c2ccc(C(F)(F)F)c(F)c2F)nc(C(=O)O)c1Cl [Compound 172, 4-amino-3-chloro-6-(2,3-difluoro-4-(trifluoromethyl)phenyl)picolinic acid], the pest or weed control at 70 g/ha [1, 3] was 95 to 100%, the pest or weed control at 140 g/ha [1, 3] was 95 to 100% and the pest or weed control at 70 g/ha [1, 4] was 95 to 100%. The pest or weed control at 140 g/ha [1, 4] was 95 to 100%, the pest or weed control at 70 g/ha [1, 5] was 75 to 84% and the pest or weed control at 140 g/ha [1, 5] was 75 to 84%. It also gave a pest or weed control at 70 g/ha [1, 6] of 85 to 94%, a pest or weed control at 140 g/ha [1, 6] of 85 to 94% and a pest or weed control at 70 g/ha [1, 7] of 95 to 100%. For the same molecule, the pest or weed control at 140 g/ha [1, 7] was 95 to 100%, the pest or weed control at 70 g/ha [1, 8] was 95 to 100% and the pest or weed control at 140 g/ha [1, 8] was 95 to 100%. The pest or weed control at 70 g/ha [1, 9] was 45 to 59%, the pest or weed control at 140 g/ha [1, 9] was 60 to 74% and the pest or weed control at 70 g/ha [2, 10] was 95 to 100%. It also gave a pest or weed control at 140 g/ha [2, 10] of 95 to 100%, a pest or weed control at 70 g/ha [2, 11] of 75 to 84% and a pest or weed control at 140 g/ha [2, 11] of 75 to 84%. For the same molecule, the pest or weed control at 70 g/ha [2, 12] was 95 to 100%, the pest or weed control at 140 g/ha [2, 12] was 95 to 100% and the pest or weed control at 70 g/ha [2, 13] was 0 to 29%. It also gave a pest or weed control at 140 g/ha [2, 13] of 0 to 29%, a pest or weed control at 70 g/ha [2, 14] of 95 to 100% and a pest or weed control at 140 g/ha [2, 14] of 95 to 100%. The pest or weed control at 70 g/ha [2, 15] was 75 to 84%, the pest or weed control at 140 g/ha [2, 15] was 75 to 84% and the pest or weed control at 70 g/ha [2, 16] was 45 to 59%. The pest or weed control at 140 g/ha [2, 16] was 60 to 74%, the pest or weed control at 70 g/ha [2, 17] was 95 to 100% and the pest or weed control at 140 g/ha [2, 17] was 95 to 100%. The melting point was 161 °C.
